Here are results for three molecules from article PMC6437697 (Journal of Medicinal Chemistry, 2019).

Holding throughout (assay): KINOMEscan
Common to all, as to type: binding
What all share (settings): read-out: % control activity remaining

The target of one assay is T1, LRRK2 (Homo sapiens, UniProt Q5S007).
T1 construct: purchased Eurofins DiscoverX KINOMEscan

The next assay has as its target T2, TEC (Homo sapiens, UniProt P42680).
T2 construct: purchased Eurofins DiscoverX KINOMEscan
T2 sequence (P42680 1-631): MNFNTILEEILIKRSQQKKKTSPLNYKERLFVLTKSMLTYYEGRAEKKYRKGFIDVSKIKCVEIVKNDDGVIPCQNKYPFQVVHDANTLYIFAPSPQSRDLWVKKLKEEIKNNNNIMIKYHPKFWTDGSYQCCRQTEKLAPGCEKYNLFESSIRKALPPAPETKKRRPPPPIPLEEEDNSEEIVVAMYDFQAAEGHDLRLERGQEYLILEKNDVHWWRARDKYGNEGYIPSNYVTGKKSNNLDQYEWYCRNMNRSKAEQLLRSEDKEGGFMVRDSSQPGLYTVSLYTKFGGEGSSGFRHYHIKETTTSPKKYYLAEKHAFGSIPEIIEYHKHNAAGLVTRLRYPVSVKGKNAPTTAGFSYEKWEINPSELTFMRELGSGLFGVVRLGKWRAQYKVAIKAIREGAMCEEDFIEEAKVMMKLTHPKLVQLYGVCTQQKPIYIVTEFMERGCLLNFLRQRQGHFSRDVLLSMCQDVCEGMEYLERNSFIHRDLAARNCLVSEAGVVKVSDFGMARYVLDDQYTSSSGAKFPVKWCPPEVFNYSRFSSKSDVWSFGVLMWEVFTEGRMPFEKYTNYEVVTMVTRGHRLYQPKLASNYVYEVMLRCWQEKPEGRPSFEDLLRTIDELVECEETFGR

For a further assay, the target named is T3, BRAF(V600E) (Homo sapiens, UniProt P15056, V600E).
T3 construct: purchased Eurofins DiscoverX KINOMEscan
T3 sequence (P15056 whole entry V600E): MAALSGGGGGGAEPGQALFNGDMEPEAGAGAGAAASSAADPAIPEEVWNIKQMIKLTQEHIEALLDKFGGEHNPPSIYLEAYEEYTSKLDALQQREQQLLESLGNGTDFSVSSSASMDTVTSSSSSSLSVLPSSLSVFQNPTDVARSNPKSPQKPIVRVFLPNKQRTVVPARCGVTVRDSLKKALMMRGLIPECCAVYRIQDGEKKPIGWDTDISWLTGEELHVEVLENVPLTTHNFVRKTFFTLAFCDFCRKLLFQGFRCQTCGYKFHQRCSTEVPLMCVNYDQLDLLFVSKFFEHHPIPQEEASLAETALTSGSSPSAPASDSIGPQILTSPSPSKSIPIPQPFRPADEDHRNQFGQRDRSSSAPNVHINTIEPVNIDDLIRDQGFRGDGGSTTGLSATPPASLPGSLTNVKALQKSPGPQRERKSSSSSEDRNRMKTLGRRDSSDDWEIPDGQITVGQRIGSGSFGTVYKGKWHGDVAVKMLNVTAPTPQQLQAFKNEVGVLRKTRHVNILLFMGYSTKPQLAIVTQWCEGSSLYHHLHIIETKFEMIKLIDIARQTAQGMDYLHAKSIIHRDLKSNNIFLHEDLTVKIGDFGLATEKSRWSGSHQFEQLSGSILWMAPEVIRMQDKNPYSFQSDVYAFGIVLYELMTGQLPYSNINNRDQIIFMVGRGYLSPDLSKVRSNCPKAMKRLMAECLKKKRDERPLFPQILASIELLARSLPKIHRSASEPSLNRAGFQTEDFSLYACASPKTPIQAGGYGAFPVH

A further assay addresses T4, DDR1 (Homo sapiens, UniProt Q08345).
T4 construct: purchased Eurofins DiscoverX KINOMEscan

In a further assay the target is T5, TRPM6 (Homo sapiens, UniProt Q9BX84).
T5 construct: purchased Eurofins DiscoverX KINOMEscan

The next assay addresses T6, LYN (Homo sapiens, UniProt P07948).
T6 construct: purchased Eurofins DiscoverX KINOMEscan

Assay [1] deals with T7, TYK2(JH1domain-catalytic) (Homo sapiens, UniProt P29597).
T7 construct: TYK2(JH1domain-catalytic); purchased Eurofins DiscoverX KINOMEscan
T7 sequence (P29597 871-1187 limits assumed): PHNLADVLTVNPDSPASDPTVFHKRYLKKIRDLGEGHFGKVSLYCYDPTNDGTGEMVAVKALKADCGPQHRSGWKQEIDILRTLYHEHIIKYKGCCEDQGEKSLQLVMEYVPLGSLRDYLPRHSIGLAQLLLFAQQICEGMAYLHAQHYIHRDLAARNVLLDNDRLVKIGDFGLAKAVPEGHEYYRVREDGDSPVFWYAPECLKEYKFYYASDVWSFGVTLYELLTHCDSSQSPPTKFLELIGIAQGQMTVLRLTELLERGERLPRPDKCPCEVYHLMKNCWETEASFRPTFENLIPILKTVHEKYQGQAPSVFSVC

A further assay concerns the target T8, MLK2 (Homo sapiens, UniProt Q02779).
T8 construct: purchased Eurofins DiscoverX KINOMEscan

Another assay addresses T9, PAK6 (Homo sapiens, UniProt Q9NQU5).
T9 construct: purchased Eurofins DiscoverX KINOMEscan

The target of another assay is T10, KIT(D816H) (Homo sapiens, UniProt P10721, D816H).
T10 construct: purchased Eurofins DiscoverX KINOMEscan
T10 sequence (P10721 26-976 D816H): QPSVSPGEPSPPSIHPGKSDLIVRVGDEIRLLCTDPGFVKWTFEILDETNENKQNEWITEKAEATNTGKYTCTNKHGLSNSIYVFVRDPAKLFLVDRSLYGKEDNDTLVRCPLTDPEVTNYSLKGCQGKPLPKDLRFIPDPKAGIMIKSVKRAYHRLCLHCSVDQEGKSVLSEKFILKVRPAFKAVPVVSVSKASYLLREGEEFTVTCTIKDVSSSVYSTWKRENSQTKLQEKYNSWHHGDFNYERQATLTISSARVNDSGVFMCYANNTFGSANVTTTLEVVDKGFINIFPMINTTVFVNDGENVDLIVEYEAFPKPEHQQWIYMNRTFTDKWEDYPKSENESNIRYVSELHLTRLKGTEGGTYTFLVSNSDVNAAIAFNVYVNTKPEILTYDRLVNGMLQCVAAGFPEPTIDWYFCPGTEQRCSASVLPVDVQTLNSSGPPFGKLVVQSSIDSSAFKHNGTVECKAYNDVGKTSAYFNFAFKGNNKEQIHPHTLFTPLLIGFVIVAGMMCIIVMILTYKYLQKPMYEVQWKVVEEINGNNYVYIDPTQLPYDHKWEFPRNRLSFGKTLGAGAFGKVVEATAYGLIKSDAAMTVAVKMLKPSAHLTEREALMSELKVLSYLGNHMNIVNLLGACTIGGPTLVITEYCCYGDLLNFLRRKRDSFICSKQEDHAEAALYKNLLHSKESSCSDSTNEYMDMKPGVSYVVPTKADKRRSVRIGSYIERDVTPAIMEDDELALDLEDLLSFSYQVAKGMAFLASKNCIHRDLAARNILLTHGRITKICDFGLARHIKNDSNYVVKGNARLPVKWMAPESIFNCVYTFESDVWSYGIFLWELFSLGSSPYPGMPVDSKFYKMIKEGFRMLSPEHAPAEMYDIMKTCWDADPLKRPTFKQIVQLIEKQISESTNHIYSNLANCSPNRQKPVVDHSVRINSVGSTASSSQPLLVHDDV

For another assay, the target named is T11, MRCKA (Homo sapiens, UniProt Q5VT25).
T11 construct: purchased Eurofins DiscoverX KINOMEscan

The target of another assay is T12, KIT(V559D,V654A) (Homo sapiens, UniProt P10721, V559D/V654A).
T12 construct: purchased Eurofins DiscoverX KINOMEscan
T12 sequence (P10721 26-976 V559D/V654A): as the sequence (P10721 26-976 D816H) above, with V534D, V629A, H791D counted along it

Another assay has as its target T13, MYLK4 (Homo sapiens, UniProt Q86YV6).
T13 construct: purchased Eurofins DiscoverX KINOMEscan
T13 sequence (Q86YV6 1-388): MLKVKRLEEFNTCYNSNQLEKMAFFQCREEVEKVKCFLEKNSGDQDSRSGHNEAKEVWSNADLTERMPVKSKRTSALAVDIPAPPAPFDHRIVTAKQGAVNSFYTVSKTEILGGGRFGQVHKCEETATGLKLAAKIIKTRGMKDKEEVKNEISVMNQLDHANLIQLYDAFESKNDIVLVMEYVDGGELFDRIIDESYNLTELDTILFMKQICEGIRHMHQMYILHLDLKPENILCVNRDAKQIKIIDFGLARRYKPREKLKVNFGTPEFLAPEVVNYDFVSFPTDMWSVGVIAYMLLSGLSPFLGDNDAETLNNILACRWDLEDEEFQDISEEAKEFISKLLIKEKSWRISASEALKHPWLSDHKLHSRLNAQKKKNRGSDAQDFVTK

Another assay deals with T14, FGFR3(G697C) (Homo sapiens, UniProt P22607, G697C).
T14 construct: purchased Eurofins DiscoverX KINOMEscan

A further assay has as its target T15, LTK (Homo sapiens, UniProt P29376).
T15 construct: purchased Eurofins DiscoverX KINOMEscan

Another assay deals with T16, NEK11 (Homo sapiens, UniProt Q8NG66).
T16 construct: purchased Eurofins DiscoverX KINOMEscan
T16 sequence (Q8NG66 1-645): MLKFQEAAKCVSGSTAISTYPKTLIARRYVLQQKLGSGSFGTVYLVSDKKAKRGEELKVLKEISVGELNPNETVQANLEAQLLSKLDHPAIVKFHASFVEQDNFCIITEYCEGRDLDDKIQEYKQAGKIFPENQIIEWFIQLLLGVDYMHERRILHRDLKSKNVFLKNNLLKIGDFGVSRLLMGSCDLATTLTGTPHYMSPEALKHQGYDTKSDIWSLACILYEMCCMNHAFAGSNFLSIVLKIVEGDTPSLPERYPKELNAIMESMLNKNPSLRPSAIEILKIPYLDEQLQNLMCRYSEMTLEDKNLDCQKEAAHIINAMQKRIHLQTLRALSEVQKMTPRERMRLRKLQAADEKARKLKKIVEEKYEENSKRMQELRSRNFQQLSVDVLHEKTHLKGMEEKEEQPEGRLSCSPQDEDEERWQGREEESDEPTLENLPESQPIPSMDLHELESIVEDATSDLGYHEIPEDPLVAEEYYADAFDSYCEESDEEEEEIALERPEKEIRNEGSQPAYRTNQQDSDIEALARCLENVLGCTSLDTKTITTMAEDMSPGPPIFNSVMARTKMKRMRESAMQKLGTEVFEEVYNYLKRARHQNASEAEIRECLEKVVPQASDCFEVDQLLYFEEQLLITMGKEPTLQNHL

T1 sequence (Q5S007 whole entry): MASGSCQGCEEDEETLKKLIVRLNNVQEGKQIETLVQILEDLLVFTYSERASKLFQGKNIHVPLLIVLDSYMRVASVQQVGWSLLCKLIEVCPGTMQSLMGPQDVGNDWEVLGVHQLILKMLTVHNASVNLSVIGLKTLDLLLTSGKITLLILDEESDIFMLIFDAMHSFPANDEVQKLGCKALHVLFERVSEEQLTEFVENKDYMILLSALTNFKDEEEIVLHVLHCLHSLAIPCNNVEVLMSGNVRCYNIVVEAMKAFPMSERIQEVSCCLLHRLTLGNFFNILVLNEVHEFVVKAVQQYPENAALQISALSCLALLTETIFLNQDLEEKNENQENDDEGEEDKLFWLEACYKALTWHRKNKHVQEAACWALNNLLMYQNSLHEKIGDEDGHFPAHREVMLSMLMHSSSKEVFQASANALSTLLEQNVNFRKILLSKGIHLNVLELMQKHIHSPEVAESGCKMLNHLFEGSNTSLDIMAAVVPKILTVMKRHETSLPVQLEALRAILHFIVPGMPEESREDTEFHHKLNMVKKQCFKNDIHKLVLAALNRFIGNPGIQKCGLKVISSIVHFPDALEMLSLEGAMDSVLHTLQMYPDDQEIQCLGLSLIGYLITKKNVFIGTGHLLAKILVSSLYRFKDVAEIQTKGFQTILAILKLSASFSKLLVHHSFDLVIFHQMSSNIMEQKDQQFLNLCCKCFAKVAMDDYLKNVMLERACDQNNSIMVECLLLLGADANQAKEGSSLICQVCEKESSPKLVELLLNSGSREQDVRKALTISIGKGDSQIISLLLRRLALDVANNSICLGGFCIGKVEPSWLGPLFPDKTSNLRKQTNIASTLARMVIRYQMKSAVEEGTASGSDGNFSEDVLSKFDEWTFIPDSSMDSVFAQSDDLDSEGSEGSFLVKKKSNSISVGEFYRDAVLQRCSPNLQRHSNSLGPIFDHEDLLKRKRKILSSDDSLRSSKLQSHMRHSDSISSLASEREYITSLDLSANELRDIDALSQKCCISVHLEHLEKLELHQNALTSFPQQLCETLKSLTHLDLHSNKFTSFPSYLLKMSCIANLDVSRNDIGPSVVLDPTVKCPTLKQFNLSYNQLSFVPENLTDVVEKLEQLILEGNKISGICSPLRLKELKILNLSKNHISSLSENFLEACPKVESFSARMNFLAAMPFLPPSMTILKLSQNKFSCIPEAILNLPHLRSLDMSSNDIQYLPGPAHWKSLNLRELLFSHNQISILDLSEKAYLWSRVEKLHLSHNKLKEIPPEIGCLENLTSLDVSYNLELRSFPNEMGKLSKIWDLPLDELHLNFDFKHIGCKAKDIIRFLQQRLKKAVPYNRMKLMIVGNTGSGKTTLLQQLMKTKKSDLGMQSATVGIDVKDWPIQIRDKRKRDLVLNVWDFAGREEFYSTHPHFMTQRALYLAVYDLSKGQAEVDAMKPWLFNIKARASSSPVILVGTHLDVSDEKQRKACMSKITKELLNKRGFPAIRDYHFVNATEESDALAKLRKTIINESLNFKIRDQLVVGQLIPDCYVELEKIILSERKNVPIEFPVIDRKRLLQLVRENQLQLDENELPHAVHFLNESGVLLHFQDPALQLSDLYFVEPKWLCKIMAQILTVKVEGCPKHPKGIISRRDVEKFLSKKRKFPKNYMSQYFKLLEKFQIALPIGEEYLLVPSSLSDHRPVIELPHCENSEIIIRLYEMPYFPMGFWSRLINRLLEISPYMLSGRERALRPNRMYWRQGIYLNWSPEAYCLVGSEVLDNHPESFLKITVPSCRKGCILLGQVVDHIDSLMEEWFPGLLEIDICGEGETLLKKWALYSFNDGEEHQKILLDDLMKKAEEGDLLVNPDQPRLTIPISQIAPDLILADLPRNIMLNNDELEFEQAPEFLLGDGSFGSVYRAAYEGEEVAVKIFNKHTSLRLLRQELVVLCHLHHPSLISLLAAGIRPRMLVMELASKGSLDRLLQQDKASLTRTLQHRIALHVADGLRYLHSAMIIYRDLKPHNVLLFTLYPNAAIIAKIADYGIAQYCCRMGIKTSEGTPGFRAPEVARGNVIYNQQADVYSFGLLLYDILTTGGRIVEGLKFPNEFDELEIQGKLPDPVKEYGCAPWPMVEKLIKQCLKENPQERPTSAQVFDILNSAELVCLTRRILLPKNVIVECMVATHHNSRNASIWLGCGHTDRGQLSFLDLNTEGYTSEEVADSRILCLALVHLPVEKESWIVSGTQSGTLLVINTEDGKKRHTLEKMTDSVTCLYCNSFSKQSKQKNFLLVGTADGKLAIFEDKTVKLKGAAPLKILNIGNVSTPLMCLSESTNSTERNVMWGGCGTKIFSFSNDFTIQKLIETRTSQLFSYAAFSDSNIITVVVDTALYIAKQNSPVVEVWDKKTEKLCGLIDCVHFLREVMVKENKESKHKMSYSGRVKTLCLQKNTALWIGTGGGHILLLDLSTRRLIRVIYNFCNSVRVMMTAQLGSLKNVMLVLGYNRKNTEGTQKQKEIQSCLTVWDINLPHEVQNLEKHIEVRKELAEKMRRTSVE
T15 sequence (P29376 17-864): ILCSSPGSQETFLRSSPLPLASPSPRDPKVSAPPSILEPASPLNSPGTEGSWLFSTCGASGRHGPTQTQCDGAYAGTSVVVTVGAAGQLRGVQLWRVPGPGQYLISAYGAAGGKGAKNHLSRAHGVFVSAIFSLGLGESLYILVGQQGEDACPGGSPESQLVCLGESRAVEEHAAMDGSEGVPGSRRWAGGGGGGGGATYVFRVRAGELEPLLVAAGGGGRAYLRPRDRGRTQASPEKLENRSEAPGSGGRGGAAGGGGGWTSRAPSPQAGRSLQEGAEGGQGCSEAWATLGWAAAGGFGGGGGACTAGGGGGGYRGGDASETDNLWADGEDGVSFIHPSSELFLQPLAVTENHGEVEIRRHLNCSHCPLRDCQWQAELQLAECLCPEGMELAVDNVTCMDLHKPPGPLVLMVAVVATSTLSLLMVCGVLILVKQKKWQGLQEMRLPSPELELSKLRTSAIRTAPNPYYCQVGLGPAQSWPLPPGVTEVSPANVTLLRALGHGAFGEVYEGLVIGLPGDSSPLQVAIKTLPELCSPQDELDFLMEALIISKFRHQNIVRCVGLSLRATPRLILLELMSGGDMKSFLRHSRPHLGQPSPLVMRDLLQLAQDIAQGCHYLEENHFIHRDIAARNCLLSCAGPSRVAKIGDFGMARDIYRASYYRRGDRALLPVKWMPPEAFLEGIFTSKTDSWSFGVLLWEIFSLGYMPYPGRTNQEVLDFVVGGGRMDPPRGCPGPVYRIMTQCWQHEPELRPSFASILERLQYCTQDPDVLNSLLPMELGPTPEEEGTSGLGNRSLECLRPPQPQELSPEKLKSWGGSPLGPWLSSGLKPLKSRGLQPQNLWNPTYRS

For the molecule `Clc1cc(NCC2CC2)c2ncc(-c3ccc4[nH]ncc4c3)n2n1` [compound 2, 6-Chloro-N-(cyclopropylmethyl)-3-(1H-indazol-5-yl)imidazo[1,2-b]pyridazin-8-amine], the remaining binding at 1 µM on LRRK2 was 94%; on TEC it was 100%; at BRAF(V600E) it was 99%; on DDR1 it was 22%; at TRPM6, 100%; at LYN, 92%. Also, the remaining binding at 1 µM in assay [1] amounted to 87%; on MLK2 it was 100%; at PAK6 it was 100%; at KIT(D816H) it was 100%; at MRCKA, 90%; on KIT(V559D,V654A), 7.8%. Besides, the remaining binding at 1 µM was 67% at MYLK4, 78% at FGFR3(G697C), 100% on LTK and 88% at NEK11.

Turning to `O=C(CN1CCOCC1)N[C@H]1CC[C@H](Nc2cc(Cl)nn3c(-c4ccc5[nH]ncc5c4)cnc23)CC1` [compound 26], the remaining binding at 1 µM on LRRK2 amounted to 90%; at TEC, 97%; at BRAF(V600E), 89%; at DDR1, 100%; at TRPM6 it was 92%; at LYN, 96%. Further, the remaining binding at 1 µM was determined as 100% in assay [1]; 92% on MLK2; 98% on PAK6; 63% at KIT(D816H); 82% on MRCKA; 0.7% on KIT(V559D,V654A). Moreover, the remaining binding at 1 µM came to 24% on MYLK4, 85% at FGFR3(G697C), 88% at LTK and 100% at NEK11.

For the molecule `CN1CCC(CNc2cc(Cl)nn3c(-c4cc5nc(Nc6ccccc6)[nH]c5cc4F)cnc23)CC1` [compound 31, 6-Chloro-3-(6-fluoro-2-(phenylamino)-1H-benzo[d]imidazol-5-yl)-N-((1-methylpiperidin-4-yl)methyl)imidazo[1,2-b]pyridazin-8-amine], the remaining binding at 1 µM amounted to 100% on LRRK2; 88% at TEC; 98% at BRAF(V600E); 96% at DDR1; 85% at TRPM6; 95% on LYN. Further, the remaining binding at 1 µM turned out to be 74% in [1]; 88% at MLK2; 97% at PAK6; 96% at KIT(D816H); 97% at MRCKA; 27% on KIT(V559D,V654A). In addition, the remaining binding at 1 µM on MYLK4 turned out to be 91%; on FGFR3(G697C) it was 91%; on LTK, 88%; at NEK11, 92%.
